In patent US10487084B2, “Toll-like receptor 7 (TLR7) agonists having a heterobiaryl moiety, conjugates thereof, and methods and uses therefor” (BRISTOL-MYERS SQUIBB COMPANY, priority 2017, dated 2019):

Key:
human TLR7 = human TLR7 (Homo sapiens (Human), UniProt Q9NYK1); test: HEK-Blue TLR7 reporter assay (TLR7 agonism); assay type: cell-based; details: HEK-Blue TLR7 cells, SEAP reporter, 18 h treatment
Procedure: This example describes a method for assaying TLR7 agonist activity of the compounds disclosed in this specification.
HEK-Blue™ TLR7 cells were added to each well of a 384-well tissue-culture plate (15,000 cells per well) and incubated 16-18 h at 37° C., 5% CO2. Compounds (100 nl) were dispensed into wells containing the HEK-Blue™ TLR cells and the treated cells were incubated at 37° C., 5% CO2. After 18 h treatment ten microliters of freshly-prepared Quanti-Blue™ reagent (Invivogen) was added to each well, incubated for 30 min (37° C., 5% CO2) and SEAP levels measured using an Envision plate reader (OD=620 nm).

interleukin 6 (IL-6) = test: Interleukin 6 induction assay in human whole blood; assay type: cell-based; details: 37° C. for 20 h, AlphaLISA
Procedure: This example describes a method for assaying interleukin 6 induction by compounds disclosed in this specification.
Compounds diluted in DMSO were transferred to individual wells of a Matrix Tech-nologies clear, V-bottom 384-well plate using ECHO acoustic liquid handling technology (25 nL per well). Human whole-blood samples (25 uL) were added to each well using a CyBio FeliX liquid handling instrument. The plate was shaken on a plate shaker for three min before incubating the reaction mixtures at 37° C. for 20 h. Basel RPMI 1640 medium (supplemented with L-glutamine) was then added to each well (25 uL per well) prior to liberating plasma from each sample by centrifugation (450×g, 5 min, ambient temperature). Treated plasma samples (3 uL) were subsequently transferred to individual wells of a white, shallow, 384-well ProxiPlate (Perkin Elmer) using the FeliX liquid handling instrument and their interleukin 6 levels were measured using AlphaLISA technology as described by the manufacturer, PerkinElmer. Data analyses software was used to determine compound EC50 values where the baseline was established using average DMSO values and 100% induction established using reference compound values at the highest concentration tested. EC50's can be determined with software such as Graphpad Prism™.

IFN-α = details: fold lower potency vs corresponding purine-8-one compound; cited from earlier work

Sequence of human TLR7 (Q9NYK1 27-1049): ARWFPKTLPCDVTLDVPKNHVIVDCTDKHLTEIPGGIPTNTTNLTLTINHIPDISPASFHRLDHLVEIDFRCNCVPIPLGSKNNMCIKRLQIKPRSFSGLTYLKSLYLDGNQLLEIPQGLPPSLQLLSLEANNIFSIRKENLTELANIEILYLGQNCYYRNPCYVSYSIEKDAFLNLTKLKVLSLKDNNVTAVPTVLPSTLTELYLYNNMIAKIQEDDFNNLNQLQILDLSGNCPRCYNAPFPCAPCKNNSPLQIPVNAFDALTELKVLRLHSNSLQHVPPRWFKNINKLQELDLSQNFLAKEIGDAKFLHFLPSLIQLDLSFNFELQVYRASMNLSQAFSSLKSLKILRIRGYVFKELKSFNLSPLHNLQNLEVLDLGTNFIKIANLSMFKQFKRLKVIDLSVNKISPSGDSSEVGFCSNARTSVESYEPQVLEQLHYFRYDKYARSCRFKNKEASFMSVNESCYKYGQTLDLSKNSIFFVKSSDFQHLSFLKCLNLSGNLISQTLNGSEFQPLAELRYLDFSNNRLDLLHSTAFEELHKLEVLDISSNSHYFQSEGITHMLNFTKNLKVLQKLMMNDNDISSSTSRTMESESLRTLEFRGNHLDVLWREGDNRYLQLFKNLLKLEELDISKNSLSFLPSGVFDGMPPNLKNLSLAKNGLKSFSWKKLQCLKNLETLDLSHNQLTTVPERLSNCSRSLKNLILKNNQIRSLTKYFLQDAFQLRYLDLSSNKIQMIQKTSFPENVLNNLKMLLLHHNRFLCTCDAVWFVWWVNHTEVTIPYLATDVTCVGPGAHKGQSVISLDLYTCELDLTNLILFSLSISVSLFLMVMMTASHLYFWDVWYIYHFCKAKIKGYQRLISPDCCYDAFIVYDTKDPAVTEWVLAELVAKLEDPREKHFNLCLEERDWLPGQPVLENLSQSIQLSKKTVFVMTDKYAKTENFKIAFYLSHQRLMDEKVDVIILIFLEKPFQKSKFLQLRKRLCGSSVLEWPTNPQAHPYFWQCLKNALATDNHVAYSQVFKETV

Row | Compound | EC50 (human TLR7) [nM] | EC50 (interleukin 6 (IL-6)) [nM] | potency less than that of the corresponding purine-8-one compound, as measured by IFN-α induction (IFN-α) [×]
1 | CCCCOc1nc(N)c2nc(O)n(Cc3ccccc3)c2n1 [Compound B, reference compound] | 474 |  | 
2 | CCCCOc1nc(N)c2c(n1)N(Cc1cccc(CN3CCCC3)c1)CC(=O)N2 [Vesatolimod, vesatolimod] |  |  | 100
3 | CCCCOc1nc(N)c2nc(O)n(Cc3ccc(-c4nc(CO)co4)cc3)c2n1 [Ic-01] | 99 | 365 | 
4 | CCCCOc1nc(N)c2nc(O)n(Cc3ccc(-c4csc(CN)c4)cc3)c2n1 [Ib-01] |  | 106 | 
5 | CCCCOc1nc(N)c2nc(O)n(Cc3ccc(-c4cnn(CCNC5CCC5)c4)cc3)c2n1 [Ia-04] | 7.5 | 6.9 | 
6 | CCCCOc1nc(N)c2nc(O)n(Cc3ccc(-c4cnn(CC(=O)NC5CNC5)c4)cc3)c2n1 [Ia-06] | 24 | 88.7 | 

The remaining compounds from weak to strong by EC50 (interleukin 6 (IL-6)), led by results:

Row | EC50 (human TLR7) [nM] | EC50 (interleukin 6 (IL-6)) [nM] | Compound | potency less than that of the corresponding purine-8-one compound, as measured by IFN-α induction (IFN-α) [×]
7 | 16 | 108 | CCCCOc1nc(N)c2nc(O)n(Cc3ccc(-c4cnn(CCO)c4)cc3)c2n1 [Ia-01] | 
8 | 26 | 15 | CCCCOc1nc(N)c2nc(O)n(Cc3ccc(-c4cnn(C5CNC5)c4)cc3)c2n1 [Ia-03] | 
9 |  | 7.55 | CCCCOc1nc(N)c2nc(O)n(Cc3ccc(-c4csc(CN)c4)nc3)c2n1 [Ib-02] | 
